Values joined by “and” are separate entries in the source; they are usually repeats but may differ in a detail not shown here. Equal values may be shown once.
Legend:
[1] = system: mice; assay: One month treatment toxicity in mice (pathology report); type: in vivo, mouse; details: one month treatment (Additional file 1)
Description: Casp6 transgenic mouse model: All animal procedures followed the Canadian Council on Animal Care guidelines and were approved by the McGill Animal care committees. Sixteen to 20 month old C57BL/6 J mice were bred and aged in the pathogen-free Goodman Cancer Research Centre Mouse Transgenic Facility at McGill University. Mice were housed in a temperature-controlled room at 22 °C and were kept on a 12 h light/dark cycle. Food and water were available at libitum. Casp6 overexpressing mice (KI/Cre) express Casp6p20p10 under the CAG promoter (CMV immediate early enchancer/chicken β-actin promoter fusion) in the CA1 pyramidal cell layer of the hippocampus under the control of calmodulin kinase IIa (CAMKIIa)-regulated Cre expression.
Additional file 1: Pathology report. Contains pharmacokinetic and toxicological analysis of CD-1 mice treated with NWL-117 for 28 days every 3 days. (PDF 3742 kb) Additional file 2: Figures S1-S4. Contains additional information to complement Figs. 3, 4, and 6 of the manuscript. (PDF 463 kb)

[2] = Blood-brain barrier permeability by LC/MS-MS after carotid artery injection; type: in vivo, mouse; details: for concentration at 5 min: male, Casp6-expressing transgenic mice, mouse, in vivo
Description: Only males were used and littermates from each genotype (wild type (WT)/WT, WT/Cre, & knock-in (KI/)Cre) were tested together. The experimenter was blind to genotype and treatment groups. Mice were administered 20 mg/kg NWL-117 or physiological saline (0.9% NaCl) by intraperitoneal injections two times 48 h apart. […] Blood brain barrier permeability of NWL-117 caspase inhibitor: Briefly, 18–22 month old Casp6 mice were anesthetised with isoflurane, warmed with a heating blanket, and their physiological vitals (heart rate, body temperature, and respiration) monitored. The skin over the mouse’s neck was shaved, xylocaine applied, and an incision was made along the midline. Under a surgical microscope, the right carotid artery was gently separated from surrounding tissue. Two suture threads were placed at the proximal and distal ends of the carotid, and a small incision was made along the carotid wall. A micro-catheter (attached to a 1 ml syringe controlled by a micropump) was inserted and pushed to the entrance of the internal carotid artery. The catheter was secured in place using suture thread. NWL-117 (20 mg/kg) was infused via the micro-catheter using a pump set at 50 μL/min (total volume between 64 μL and 130 μL). After 5 min, blood was collected by intra-cardiac puncture, the mouse was perfused through the heart with ice cold saline for 2–3 min. The brain was removed and hippocampi were dissected and frozen on dry ice and stored. Samples were sent to the Biopharmacy platform at the University of Montreal (Quebec, Canada) for liquid chromatography and tandem mass spectrometry analysis. The integrity of the blood-brain barrier was confirmed by injecting 3% Evan’s blue solution in 20 month old Casp6 mice. Mouse cognitive analysis by novel object recognition: Mice were handled during 5 min for one week prior to behavioral tests. Novel object recognition (NOR) task was administered in three phases: habituation, familiarization (pre-exposure), and test phase. For habituation, mice were placed in the NOR box (80 cm x 80 cm, Stoelting Co, Wood Dale, IL, USA) for 5 min. After 24 h, the pre-exposure phase was initiated by allowing the animals to explore two identical objects inside the NOR box. Then, following a 2 h gap, mice were re-introduced to the NOR box which now contained a familiar and a novel object. The position of the novel object was counterbalanced between animals to avoid any bias related to a preference in the location of the new object and the use of potential confounding spatial cues. The objects were located in the middle of the NW and SE quadrants of the box, equidistantly from the box corners and from each other. The mice were placed in the middle of the SW quadrant. Washing the box and objects with 70% ethanol eliminated odour cues. The number of times touching each object was manually recorded, while the total distance, percent time moving, and number of entries into virtual cells were recorded using the HVS 2100 automated video tracking system (HVS Image, Buckingham, UK). Animals whose exploration was considered insufficient to allow recognition (<10 s per object) during the familiarization phase were excluded from analysis. Different object sets were used in the pre- and post-tests. Immunohistochemistry on mouse brain slices: Following behavioural analysis, animals were anaesthetized under isoflurane and perfused intracardially with ice cold saline for 7 min and 4% paraformaldehyde for 20 min. […]

[3] = Casp6 mice, 20 mg/kg carotid artery injection, 5 min, one value per animal, 20 mg/kg

## CCC(C)[C@H](NC(=O)[C@H](CCC(=O)O)NC(=O)[C@@H](NC(=O)OCc1ccccc1)C(C)C)C(=O)N[C@H](/C=C/S(C)(=O)=O)CC(=O)O (stereo partly drawn) [NWL-117]
[1]
  toxicity after one month treatment: No obvious toxicity
[2]; [3]
  Hippocampus concentration: 193 nM and 816 nM and 67.9 nM and 356 nM and 879 nM
  Plasma concentration: 48.521 µM and 3.416 µM and 8.998 µM and 7.408 µM and 25.425 µM
  Ratio of [hippocampal]/[plasma]: 0.004 and 0.239 and 0.008 and 0.048 and 0.035
[2]
  concentration at 5 min: 3.4 to 48 µM
[2]; 20 mg/kg
  concentration at 5 min: 0.0679 to 0.879 µM

Source: publication PMC5329948, “Caspase vinyl sulfone small molecule inhibitors prevent axonal degeneration in human neurons and reverse cognitive impairment in Caspase-6-overexpressing mice” (Molecular Neurodegeneration, 2017)
